Where two headings read alike, the source gives them in different places.
Assays:
Type in all cases: in vivo
[1] = Growth of graft Ienssen sarcoma in rats; conditions: rat, in vivo, ip, rats with Ienssen sarcoma, repeated intraperitoneal administration; read-out: Maximum tolerable dose (MTD)
From the text: (§1) The antitumor activity has been studied on white rats weighing 110-130 g, as well as on white noninbred and inbred mice weighing 17-21 g with ligated tumors. The treatment is started 5-7 days transplanting of solid tumors and the following day after the transplanting of leukotic strains. Use has been made of the following transplantable strains of the tumors:
(§2) (1) rats: Ienssen's sarcoma, sarcoma 45, sarcoma M-1, sarcoma 536;
(§3) The compounds of the general formula (I), wherein X represents Cl^- (compound 1), Br^- (compound 2) are well-soluble in an isotonic solution of sodium chloride and they are administered intraperitoneally. The doses of the compounds have been calculated in mg per kg of the animal bodyweight.

[2] = system: Ienssen's sarcoma; assay: Growth of graft Ienssen sarcoma in rats; conditions: for Ch/T chemotherapeutical index (ratio of MTD to minimum effective dose): Ienssen sarcoma
From the text: as §1, §2, §3

[3] = Growth of graft sarcoma 536 in rats; conditions: rat, in vivo, ip, rats with sarcoma 536, repeated intraperitoneal administration; read-out: Maximum tolerable dose (MTD)
From the text: as §1, §2, §3

[4] = system: sarcoma 536; assay: Growth of graft sarcoma 536 in rats; conditions: rats
From the text: as §1, §2, §3

[5] = Growth of graft sarcoma M-1 in rats; conditions: rat, in vivo, ip, rats with sarcoma M-1, repeated intraperitoneal administration; read-out: Maximum tolerable dose (MTD)
From the text: as §1, §2, §3

[6] = system: sarcoma M-1; assay: Growth of graft sarcoma M-1 in rats; conditions: rats, 5 injections
From the text: as §1, §2, §3

[7] = Distribution of C^14-labeled preparation within organs and tissues of rats with sarcoma M-1; conditions: rats with sarcoma M-1, intravenous
From the text: Furthermore, the particular distribution of the preparation according to the present invention within organs and tissues should also be noted.
(§4) In the case of administration of the preparation according to the present invention labeled with C^14, a higher level of radioactivity in blood is observed than in the case of prospidin labeled with C^14. A higher rate of accumulation of the preparation according to the present invention as compared to prospidin is observed in larynx, windpipe, bronchi, bone marrow, tumor and thyroid gland. The preparation according to the present invention labeled with C^14 is withdrawn from the organism within 24 hours after the intravenous administration mainly with urine, while C^14 --labeled prospidin is retained in the organism for a longer period.

[8] = Withdrawal of radioactivity from the rats' organism; parameters: concentration or dose not given beside the values; conditions: C^14-labeled
From the text: as §4

[9] = system: transplantable leukemia; assay: Activity relative to leukoses of inbred mice (overall)
From the text: (2) activity of the compounds relative to leukoses of inbred mice;
as §1
(3) inbred mice: leukemia La, leukemia L1210 and P-388.
The activity of compounds relative to leukosis has been assessed by the life span (It) of treated animals as compared to the control ones. It --index of suppression of leukosis development is calculated by the formula: [formula]

[10] = hypodermally, 68.6 mg/kg, 5 injections
[11] = intramuscularly, 55.5 mg/kg, 6 injections
[12] = rats, 1 mg/kg intraperitoneally, 7 injections
[13] = rats, 4 mg/kg intraperitoneally, 6 injections
[14] = rats, 6 mg/kg intraperitoneally, 6 injections
[15] = rats, 10 mg/kg intraperitoneally, 7 injections
[16] = rats, 20 mg/kg intraperitoneally, 7 injections
[17] = rats, 40 mg/kg intraperitoneally, 5 injections
[18] = rats, 90 mg/kg intraperitoneally, 7 injections
[19] = rats, 125 mg/kg intraperitoneally, 7 injections
[20] = rats, per os, 142 mg/kg, 7 injections
[21] = 50 mg/kg intraperitoneally, 7 injections
[22] = 70 mg/kg intraperitoneally, 6 injections
[23] = 24 hours after intravenous administration

SMILES: O=C(CCBr)N1CC[N+]2(CC1)CC[N+]1(CCN(C(=O)CCBr)CC1)CC2 [Compound 1, N,N^3 -di-(β-bromopropionyl)-N^1,N^2 -dispirotripiperazinium dichloride]
- MTD [1]: 160 mg/kg
- Ch/T chemotherapeutical index (ratio of MTD to minimum effective dose) [2]: 60
- Ch/T chemotherapeutical index (ratio of MTD to minimum effective dose) ([2]; listed as Preparation of the invention): 60
- Change in the bodyweight of animals, test [2, 10]: -6 g
- It, % [2, 10]: +86%
- Change in the bodyweight of animals, test [2, 11]: -11 g
- It, % [2, 11]: +78%
- Change in the animal body weight, test [2, 12]: -2 g
- It, % tumor growth suppression index [2, 12]: 0%
- Change in the animal body weight, test ([2]; rats, 2 mg/kg intraperitoneally, 6 injections): -1 g
- Change in the animal body weight, test [2, 13]: 0 g
- It, % tumor growth suppression index [2, 13]: +81%
- Change in the animal body weight, test [2, 14]: +10 g
- It, % tumor growth suppression index [2, 14]: +80%
- Change in the animal body weight, test [2, 15]: +4 g
- It, % tumor growth suppression index [2, 15]: +93%
- Change in the animal body weight, test [2, 16]: +30 g
- It, % tumor growth suppression index [2, 16]: +98%
- Change in the animal body weight, test [2, 17]: +20 g
- It, % tumor growth suppression index [2, 17]: +85%
- Change in the animal body weight, test [2, 18]: +6 g
- It, % tumor growth suppression index [2, 18]: +86%
- Change in the animal body weight, test [2, 19]: +4 g
- It, % tumor growth suppression index [2, 19]: +89%
- Change in the animal body weight, test ([2]; rats, 160 mg/kg intraperitoneally (MTD), 7 injections): -12 g
- Change in the bodyweight of animals, test [2, 20]: -15 g
- It, % [2, 20]: +55%
- range of therapeutical action as compared to prospidin ([2]; wider than prospidin): 2.5 fold
- MTD [3]: 140 mg/kg
- tumor growth suppression class, Sarcoma 536 [4]: ++ (tumor growth suppression by 80-95%)
- Change in the animal body weight, test [4, 21]: -15 g
- It, % tumor growth suppression index [4, 21]: +45%
- Change in the animal body weight, test [4, 22]: -22 g
- It, % tumor growth suppression index [4, 22]: +55%
- Change in the animal body weight, test ([4]; 140 mg/kg intraperitoneally (MTD), 6 injections): -32 g
- It, % tumor growth suppression index ([4]; 140 mg/kg intraperitoneally (MTD), 6 injections, listed as preparation of the invention, 140 mg/kg): 78%
- MTD [5]: 111 mg/kg
- Change in the animal body weight, test ([6]; 90 mg/kg intraperitoneally): +7 g
- It, % tumor growth suppression index ([6]; 90 mg/kg intraperitoneally): +96%
- Change in the animal body weight, test ([6]; 111 mg/kg intraperitoneally (MTD)): +4 g
- Coefficient of differential accumulation, Blood ([7]; 15 min): 1.43
- Coefficient of differential accumulation, Bone marrow ([7]; 15 min): 3.84
- Coefficient of differential accumulation, Bronchi ([7]; 15 min): 3.4
- Coefficient of differential accumulation, Hypophysis ([7]; 15 min): 6.3
- Coefficient of differential accumulation, Kidneys ([7]; 15 min): 10.4
- Coefficient of differential accumulation, Larynx ([7]; 15 min): 4.15
- Coefficient of differential accumulation, Liver ([7]; 15 min): 0.94
- Coefficient of differential accumulation, Lungs ([7]; 15 min): 0.95
- Coefficient of differential accumulation, Lymphonodes ([7]; 15 min): 0.69
- Coefficient of differential accumulation, Spleen ([7]; 15 min): 0.66
- Coefficient of differential accumulation, Thymus gland ([7]; 15 min): 1.67
- Coefficient of differential accumulation, Tumor ([7]; 15 min): 1.76
- Coefficient of differential accumulation, Tyroid gland ([7]; 15 min): 3.5
- Coefficient of differential accumulation, Windpipe ([7]; 15 min): 7.29
- Coefficient of differential accumulation, Blood ([7]; 30 min): 0.91
- Coefficient of differential accumulation, Bone marrow ([7]; 30 min): 6.67
- Coefficient of differential accumulation, Bronchi ([7]; 30 min): 2.83
- Coefficient of differential accumulation, Hypophysis ([7]; 30 min): 6.67
- Coefficient of differential accumulation, Kidneys ([7]; 30 min): 5.4
- Coefficient of differential accumulation, Larynx ([7]; 30 min): 3.43
- Coefficient of differential accumulation, Liver ([7]; 30 min): 0.69
- Coefficient of differential accumulation, Lungs ([7]; 30 min): 0.71
- Coefficient of differential accumulation, Lymphonodes ([7]; 30 min): 0.11
- Coefficient of differential accumulation, Spleen ([7]; 30 min): 0.33
- Coefficient of differential accumulation, Thymus gland ([7]; 30 min): 0.71
- Coefficient of differential accumulation, Tumor ([7]; 30 min): 0.91
- Coefficient of differential accumulation, Tyroid gland ([7]; 30 min): 2.73
- Coefficient of differential accumulation, Windpipe ([7]; 30 min): 4.62
- Coefficient of differential accumulation, Blood ([7]; 60 min): 0.47
- Coefficient of differential accumulation, Bone marrow ([7]; 60 min): 3.78
- Coefficient of differential accumulation, Bronchi ([7]; 60 min): 1.7
- Coefficient of differential accumulation, Hypophysis ([7]; 60 min): 5.13
- Coefficient of differential accumulation, Kidneys ([7]; 60 min): 2.6
- Coefficient of differential accumulation, Larynx ([7]; 60 min): 2.0
- Coefficient of differential accumulation, Liver ([7]; 60 min): 0.76
- Coefficient of differential accumulation, Lungs ([7]; 60 min): 0.86
- Coefficient of differential accumulation, Lymphonodes ([7]; 60 min): 0.69
- Coefficient of differential accumulation, Spleen ([7]; 60 min): 0.32
- Coefficient of differential accumulation, Thymus gland ([7]; 60 min): 0.54
- Coefficient of differential accumulation, Tumor ([7]; 60 min): 0.57
- Coefficient of differential accumulation, Tyroid gland ([7]; 60 min): 1.43
- Coefficient of differential accumulation, Windpipe ([7]; 60 min): 4.64
- Coefficient of differential accumulation, Blood ([7]; 24 hours): 0.05
- Coefficient of differential accumulation, Bone marrow ([7]; 24 hours): 0.76
- Coefficient of differential accumulation, Bronchi ([7]; 24 hours): 0.24
- Coefficient of differential accumulation, Hypophysis ([7]; 24 hours): 4.12
- Coefficient of differential accumulation, Kidneys ([7]; 24 hours): 0.53
- Coefficient of differential accumulation, Larynx ([7]; 24 hours): 0.58
- Coefficient of differential accumulation, Liver ([7]; 24 hours): 0.32
- Coefficient of differential accumulation, Lungs ([7]; 24 hours): 0.26
- Coefficient of differential accumulation, Lymphonodes ([7]; 24 hours): 0.2
- Coefficient of differential accumulation, Spleen ([7]; 24 hours): 0.11
- Coefficient of differential accumulation, Thymus gland ([7]; 24 hours): 0.2
- Coefficient of differential accumulation, Tumor ([7]; 24 hours): 0.26
- Coefficient of differential accumulation, Tyroid gland ([7]; 24 hours): 0.48
- Coefficient of differential accumulation, Windpipe ([7]; 24 hours): 0.6
- Withdrawal of radioactivity, Feces [8, 23]: 1.6%
- Withdrawal of radioactivity, Total [8, 23]: 99.9%
- Withdrawal of radioactivity, Urina [8, 23]: 98.3%
- Withdrawal of radioactivity, Urina ([8]; within 3 hours after intravenous administration): 80.7%
- effect on transplantable leukemia in mice [9]: clearly pronounced antileukotic effect
- effect on transplantable leukemia in mice ([9]; listed as preparation according to the present invention): pronounced antileucotic effect

— US4481201A, “Pharmaceutical composition containing N,N^3 -di-(β-bromopropionyl)-N^1,N^2 -dispirotripiperazinium dichloride” (Vsesojuzny Nauchno-Issledovatelsky Khimoko-Farmasevtichesky …, priority 1981, dated 1984)
